Experimental data as given in patent publication US20250388593A1 (MITSUBISHI TANABE PHARMA CORPORATION, priority 2023, published 2025).

biological target: CRBN truncate (318-426) (Homo sapiens (Human), UniProt Q96SW2); experiment: Measurement of molecular interactions using surface plasmon resonance (SPR), Biacore T200; type: binding; conditions: 25° C., immobilized CRBN truncate, upper limit of measurement 200 μM
Procedure, shortened: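 Compound injections used 60 s association and 120 s dissociation in HEPES pH 7.5 buffer (150 mM NaCl, 1 mM TCEP, 0.005% Tween 20, 2% DMSO). The ligand was CRBN truncate 318-426 bearing a C-terminal Avi-tag, immobilised via streptavidin on an SA sensor chip.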

Sequence of CRBN truncate (318-426) (Q96SW2 318-426): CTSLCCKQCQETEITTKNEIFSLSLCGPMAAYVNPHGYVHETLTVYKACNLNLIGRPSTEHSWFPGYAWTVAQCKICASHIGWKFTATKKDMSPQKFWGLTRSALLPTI

| Structure (SMILES) | Kd |
| --- | --- |
| COC(=O)c1cc2c(N3CCC4(CCCC(=O)NC4=O)C3)ncnc2s1 (centres unmarked) [Example 176, Methyl 4-(6,8-dioxo-2,7-diazaspiro[4.6]undecan-2-yl)thieno[2,3-d]pyrimidine-6-carboxylate] | < 50 µM |
| N#Cc1cc([N+](=O)[O-])ccc1N1CCC2(CCCC(=O)NC2=O)C1 (centres unmarked) [Example 177, 2-(6,8-dioxo-2,7-diazaspiro[4.6]undecan-2-yl)-5-nitrobenzonitrile] | 50 to 100 µM |
| CC(=O)N1CCc2nc(N3CCC4(CCCC(=O)NC4=O)C3)ncc2C1 (centres unmarked) [Example 178, 2-(6-Acetyl-7,8-dihydro-5H-pyrido[4,3-d]pyrimidin-2-yl)-2,7-diazaspiro[4.6]undecane-6,8-dione] | < 50 µM |
| N#Cc1ccc(N2CCC3(CCCC(=O)NC3=O)C2)cc1 (centres unmarked) [Example 179, 4-(6,8-Dioxo-2,7-diazaspiro[4.6]undecan-2-yl)benzonitrile] | < 50 µM |
| Cn1c(C(=O)OC(C)(C)C)cc2c(N3CCC4(CCCC(=O)NC4=O)C3)ncnc21 (centres unmarked) [Example 180, tert-Butyl 4-(6,8-dioxo-2,7-diazaspiro[4.6]undecan-2-yl)-7-methylpyrrolo[2,3-d]pyrimidine-6-carboxylate] | 50 to 100 µM |
| Nc1nccc(N2CCC3(CCCC(=O)NC3=O)C2)n1 (centres unmarked) [Example 182, 2-(2-Aminopyrimidin-4-yl)-2,7-diazaspiro[4.6]undecane-6,8-dione] | ≥ 100 µM |
| CC(C)(C)OC(=O)c1ccc(N2CCC3(CCCC(=O)NC3=O)C2)nn1 (centres unmarked) [Example 184, tert-Butyl 6-(6,8-dioxo-2,7-diazaspiro[4.6]undecan-2-yl)pyridazine-3-carboxylate] | ≥ 100 µM |
| CC(C)(C)OC(=O)NCCCNc1nccc(N2CCC3(CCCC(=O)NC3=O)C2)n1 (centres unmarked) [Example 185] | ≥ 100 µM |
| CC(C)(C)OC(=O)NCCCCCCCCn1ccc2c(N3CCC4(CCCC(=O)NC4=O)C3)ncnc21 (centres unmarked) [Example 186, tert-Butyl N-[8-[4-(6,8-dioxo-2,7-diazaspiro[4.6]undecan-2-yl)pyrrolo[2,3-d]pyrimidin-7-yl]octyl]carbamate] | 50 to 100 µM |
| COc1ccc2nc(N3CCC4(CCCC(=O)NC4=O)C3)sc2c1 (centres unmarked) [Example 187, 2-(6-Methoxy-1,3-benzothiazol-2-yl)-2,7-diazaspiro[4.6]undecane-6,8-dione] | 50 to 100 µM |
| COc1ccc2sc(N3CCC4(CCCC(=O)NC4=O)C3)nc2c1 (centres unmarked) [Example 188, 2-(5-Methoxy-1,3-benzothiazol-2-yl)-2,7-diazaspiro[4.6]undecane-6,8-dione] | ≥ 100 µM |
| COc1cccc2sc(N3CCC4(CCCC(=O)NC4=O)C3)nc12 (centres unmarked) [Example 189, 2-(4-Methoxy-1,3-benzothiazol-2-yl)-2,7-diazaspiro[4.6]undecane-6,8-dione] | ≥ 100 µM |
| CC(C)(C)OC(=O)N1CCc2c(ncnc2N2CCC3(CCCC(=O)NC3=O)C2)C1 (centres unmarked) [Example 190, tert-Butyl 4-(6,8-dioxo-2,7-diazaspiro[4.6]undecan-2-yl)-6,8-dihydro-5H-pyrido[3,4-d]pyrimidine-7-carboxylate] | ≥ 100 µM |
| N#Cc1ccccc1N1CCC2(CCCC(=O)NC2=O)C1 (centres unmarked) [Example 191] | ≥ 100 µM |
| CC(C)(C)OC(=O)CCCCCCCn1c(=O)n(C2CCCC(=O)NC2=O)c2ccccc21 (centres unmarked) [Example 195, tert-Butyl 8-[3-(2,7-dioxoazepan-3-yl)-2-oxobenzimidazol-1-yl]octanoate] | < 50 µM |
| CC(C)(C)OC(=O)NCCCn1c(=O)n(C2CCCC(=O)NC2=O)c2ccccc21 (centres unmarked) [Example 196, tert-Butyl N-[3-[3-(2,7-dioxoazepan-3-yl)-2-oxobenzimidazol-1-yl]propyl]carbamate] | < 50 µM |
| CC(C)(C)OC(=O)NCCn1c(=O)n(C2CCCC(=O)NC2=O)c2ccccc21 (centres unmarked) [Example 197, tert-Butyl N-[2-[3-(2,7-dioxoazepan-3-yl)-2-oxobenzimidazol-1-yl]ethyl]carbamate] | ≥ 100 µM |
| CC(C)(C)OC(=O)NCCCCCCCn1c(=O)n(C2CCCC(=O)NC2=O)c2ccccc21 (centres unmarked) [Example 198, tert-Butyl N-[7-[3-(2,7-dioxoazepan-3-yl)-2-oxobenzimidazol-1-yl]heptyl] carbamate] | < 50 µM |
| CC(C)(C)OC(=O)NCCOCCOCCn1c(=O)n(C2CCCC(=O)NC2=O)c2ccccc21 (centres unmarked) [Example 199, tert-Butyl N-[2-[2-[2-[3-(2,7-dioxoazepan-3-yl)-2-oxobenzimidazol-1-yl]ethoxy]ethoxy]ethyl]carbamate] | ≥ 100 µM |
| CC(C)(C)OC(=O)NCCCCCCCn1c(=O)n(C2CCCC(=O)NC2=O)c2ncccc21 (centres unmarked) [Example 201-2] | ≥ 100 µM |
| Cc1ccc(NC(=O)NCCCn2c(=O)n(C3CCCC(=O)NC3=O)c3ccccc32)cc1Cl (centres unmarked) [Example 202, 1-(3-Chloro-4-methylphenyl)-3-[3-[3-(2,7-dioxoazepan-3-yl)-2-oxobenzimidazol-1-yl]propyl]urea] | ≥ 100 µM |

| Structure (SMILES) | Kd |
| --- | --- |
| Cn1c(=O)n(C2CCCC(=O)NC2=O)c2cccc(C#CCCCCCC(=O)OC(C)(C)C)c21 (centres unmarked) [Example 206, tert-Butyl 8-[1-(2,7-dioxoazepan-3-yl)-3-methyl-2-oxobenzimidazol-4-yl]oct-7-ynoate] | < 50 µM |
| O=C(O)CCCCCCCc1nn(C2CCCC(=O)NC2=O)c2ccccc12 (centres unmarked) [Example 209, 8-[1-(2,7-Dioxoazepan-3-yl)indazol-3-yl]octanoic acid] | ≥ 100 µM |
| Cn1c(=O)n(C2CCCC(=O)NC2=O)c2cccc(I)c21 (centres unmarked) [Example 210, 3-(4-Iodo-3-methyl-2-oxobenzimidazol-1-yl) azepane-2,7-dione] | 50 to 100 µM |
| Cn1c(=O)n(C2CCCC(=O)NC2=O)c2cccc(CCCCC(=O)OC(C)(C)C)c21 (centres unmarked) [Example 214, tert-Butyl 5-[1-(2,7-dioxoazepan-3-yl)-3-methyl-2-oxobenzimidazol-4-yl]pentanoate] | 50 to 100 µM |
| Cn1c(=O)n(C2CCCC(=O)NC2=O)c2ccc(C3CCN(C(=O)OC(C)(C)C)CC3)cc21 (centres unmarked) [Example 218, tert-Butyl 4-[1-(2,7-dioxoazepan-3-yl)-3-methyl-2-oxobenzimidazol-5-yl]piperidine-1-carboxylate] | 50 to 100 µM |
| Cn1c(=O)n(C2CCCC(=O)NC2=O)c2ccc(C3CCN(CC(=O)OC(C)(C)C)CC3)cc21 (centres unmarked) [Example 219, tert-Butyl 2-[4-[1-(2,7-dioxoazepan-3-yl)-3-methyl-2-oxobenzimidazol-5-yl]piperidin-1-yl]acetate] | < 50 µM |
| Cn1c(=O)n(C2CCCC(=O)NC2=O)c2cccc(C3=CCN(C(=O)OC(C)(C)C)CC3)c21 (centres unmarked) [Example 220, tert-Butyl 4-[1-(2,7-dioxoazepan-3-yl)-3-methyl-2-oxobenzimidazol-4-yl]-3,6-dihydro-2H-pyridine-1-carboxylate] | 50 to 100 µM |
| Cn1c(=O)n(C2CCCC(=O)NC2=O)c2cccc(-c3ccncc3)c21 (centres unmarked) [Example 221, 3-[3-Methyl-2-oxo-4-(4-pyridyl)benzimidazol-1-yl]azepane-2,7-dione] | 50 to 100 µM |
| Cn1c(=O)n(C2CCCC(=O)NC2=O)c2cccc(C3=CCN(CC(=O)OC(C)(C)C)CC3)c21 (centres unmarked) [Example 222, tert-Butyl 2-[4-[1-(2,7-dioxoazepan-3-yl)-3-methyl-2-oxobenzimidazol-4-yl]-3,6-dihydro-2H-pyridin-1-yl]acetate] | 50 to 100 µM |
| CC(C)(C)OC(=O)c1ccc(N2CC[C@]3(CCCC(=O)NC3=O)CC2=O)cc1 [Example 223, tert-Butyl 4-(4,7,9-trioxo-3,8-diazaspiro [5.6]dodecan-3-yl) benzoate] | < 50 µM |
| CC(C)(C)OC(=O)c1ccc(N2CC[C@@]3(CCCC(=O)NC3=O)CC2=O)cc1 [Example 224, tert-Butyl 4-(4,7,9-trioxo-3,8-diazaspiro [5.6]dodecan-3-yl) benzoate] | ≥ 100 µM |
| O=C1CCCC2(CCN(c3ccc([N+](=O)[O-])cc3)C(=O)C2)C(=O)N1 (centres unmarked) [Example 225, 3-(4-Nitrophenyl)-3,8-diazaspiro [5.6]dodecane-4,7,9-trione] | ≥ 100 µM |
| CC(C)(C)OC(=O)CCCCCN1CC2(CC(=O)N(C3CCC(=O)NC3=O)C2=O)C1 (centres unmarked) [Example 229, tert-Butyl 6-[6-(2,6-dioxopiperidin-3-yl)-5,7-dioxo-2,6-diazaspiro[3.4]octan-2-yl]hexanoate] | ≥ 100 µM |
| Nc1nccc(N2CC3(CC(=O)N(C4CCC(=O)NC4=O)C3=O)C2)n1 (centres unmarked) [Example 230, 2-(2-Aminopyrimidin-4-yl)-6-(2,6-dioxopiperidin-3-yl)-2,6-diazaspiro[3.4]octane-5,7-dione] | ≥ 100 µM |
| CC(C)(C)OC(=O)c1ccc2nc(N3CC4(CC(=O)N(C5CCC(=O)NC5=O)C4=O)C3)sc2c1 (centres unmarked) [Example 231, tert-Butyl 2-[6-(2,6-dioxopiperidin-3-yl)-5,7-dioxo-2,6-diazaspiro[3.4]octan-2-yl]-1,3-benzothiazole-6-carboxylate] | < 50 µM |
| O=C1CCC(N2C(=O)CC3(CN(c4ccc([N+](=O)[O-])cc4)C3)C2=O)C(=O)N1 (centres unmarked) [Example 232, 6-(2,6-Dioxopiperidin-3-yl)-2-(4-nitrophenyl)-2,6-diazaspiro[3.4]octane-5,7-dione] | 50 to 100 µM |
| CC(C)(C)OC(=O)NCCCNc1nccc(N2CC3(CC(=O)N(C4CCC(=O)NC4=O)C3=O)C2)n1 (centres unmarked) [Example 233] | ≥ 100 µM |
| CC(C)(C)OC(=O)COc1cnc(N2CC3(CC(=O)N(C4CCC(=O)NC4=O)C3=O)C2)nc1 (centres unmarked) [Example 234] | ≥ 100 µM |
| Cn1ccc2c(N3CC4(CC(=O)N(C5CCC(=O)NC5=O)C4=O)C3)ncnc21 (centres unmarked) [Example 235, 6-(2,6-Dioxopiperidin-3-yl)-2-(7-methylpyrrolo[2,3-d]pyrimidin-4-yl)-2,6-diazaspiro[3.4]octane-5,7-dione] | ≥ 100 µM |
| CC(C)(C)OC(=O)NCCCCCCCCn1ccc2c(N3CC4(CC(=O)N(C5CCC(=O)NC5=O)C4=O)C3)ncnc21 (centres unmarked) [Example 236, tert-Butyl N-[8-[4-[6-(2,6-dioxopiperidin-3-yl)-5,7-dioxo-2,6-diazaspiro[3.4]octan-2-yl]pyrrolo[2,3-d]pyrimidin-7-yl]octyl]carbamate] | < 50 µM |
